Entries after “also recorded” stand apart in the source; their conditions may differ. Like-named read-outs stand apart in the source and are kept apart here. Ends that are not written are not given here.
Key:
TREM-1 [1] = target: T1, TREM-1 (Homo sapiens, UniProt Q9NP99); conditions: cited from earlier work
T1 construct: causes dissociation of the TREM-1 exocellular domain; made in house

HLA-negative tumor cells = conditions: cited from earlier work
TREM-1 [2] = target: T1, TREM-1; test: Interaction with / dependence on TREM-1 (judged from cytotoxicity blocking and binding experiments); format: cell-based; conditions: for effect on interaction of TREM-1 with its ligands: ligands N7 peptide, HMGB1, full-length Hsp70, judged from PBMC cytotoxicity
Protocol: (§1) Human leukemic cell line K562 and THP-1 cell line were cultured in RPMI-1640 (Himedia Laboratories Private Limited, Maharashtra, India) and 10% FCS (Cytiva Livescience™, Marlborough, MA, USA). This cell line was obtained from the cell line collection of N. N. Blokhin National Medical Research Center of Oncology of the Ministry of Health of Russia. […] The cells were sorted using sets of magnetic beads for isolation of CD14+, CD16+, CD56+, CD8+, and CD4+ according to the manufacturer’s protocol (all were produced by Thermo Fisher Scientific, Waltham, MA, USA).
(§2) For cytotoxicity tests, cells of the K562 line were cultured in 96-well plates (Guangzhou Jet Bio-Filtration Co., Guangzhou, China) (6 × 10^4 per well) mixed with lymphocytes added at a 20:1 ratio and incubated at 37 °C in a 5% CO2 atmosphere for 3 to 24 h). In the inhibition assays, cells were pre-incubated for 1 h with the LP17 ([…]) (Thermo Fisher Scientific, Boston, MA, USA), abTREM1 (ABclonal, Woburn, MA, USA), anti-NKG2D, anti-granzyme B, caspase 3 inhibitor Ac-IEID-CHO, RIP1 kinase inhibitor necrostatin1, TLR4 inhibitor, anti-MicA, anti-FasL, anti-CD94 antibody (concentration was 20 μg/mL for all inhibitors and all from Thermo Fisher Scientific, Waltham, MA, USA) and then the lymphocytes were added.
(§3) Cytotoxicity was measured using a Cytotox 96 analysis kit (Promega, Madison, WI, USA) after 24 h of incubation in accordance with the manufacturer’s protocol.

CD94 receptor = test: Interaction with CD94 receptor (judged from PBMC cytotoxicity); format: cell-based, human; conditions: concluded from cytotoxicity experiments
Protocol: as §1
For cytotoxicity tests, cells of the K562 line were cultured in 96-well plates (Guangzhou Jet Bio-Filtration Co., Guangzhou, China) (6 × 10^4 per well) mixed with lymphocytes added at a 20:1 ratio and incubated at 37 °C in a 5% CO2 atmosphere for 3 to 24 h). […]
as §3

K562 cells = test: Cytotoxicity of activated PBMC/lymphocytes against K562 cells (Cytotox 96); format: cell-based, human
Protocol: as §1, §2, §3

ICR mice = test: LPS-induced sepsis in mice, survival; format: in vivo; conditions: N7.1 120 µg per mouse i.v. 1 h after LPS
Protocol: Female ICR mice weighing 25 ± 1.1 g (7-week-old) were obtained from the Animal Breeding Facility of IBCh RAS (Bioresource Collection supported by the Ministry of Science and Higher Education of the Russian Federation, contract No. 075-15-2025-486). During the experiment, all mice were maintained in a specific pathogen-free (SPF) state under a strict light cycle (lights on at 07:00 h and off at 19:00 h), at 22 ± 2 °C and 50 ± 10% relative humidity. Animals were provided ad libitum access to a standard laboratory autoclavable rodent diet.
Twenty-one mice were used for the present study. The animals were randomly assigned to three groups with seven animals in each group: (1) control, intact animals; (2) intravenous injection of physiological saline (100 μL 0.9% NaCl) as a placebo during LPS-induced sepsis; (3) intravenous injection of peptide N7.1 (120 µg in 100 µL saline per mouse) during LPS-induced sepsis. LPS-induced sepsis was stimulated by an intraperitoneal injection of 0.6 mg lipopolysaccharides from Salmonella enterica Serotype Typhimurium (Sigma-Aldrich Co., St. Louis, MO, USA). Due to the small fluctuation in animal weight, weight-based dosing of LPS was not used. Drug treatment (saline or peptide N7.1) was carried out 1 h after LPS-induced sepsis.

TREM-1 [3] = target: T1, TREM-1; test: Microscale thermophoresis, binding to TREM-1; conditions: sTREM-1 labeled with Alexa Fluor 488, 30 min in the dark at room temperature, 16 concentrations by sequential dilution, Monolith NT 115, 8% IR laser power, at least three replicates
Protocol: The purified sTREM-1 protein was labeled using an Alexa FluorTM 488 Protein Labeling Kit (Life Technologies Corporation, Eugene, OR, USA) in accordance with the manufacturer’s protocol.
The N7 peptide and TKD (C = 200 nM for all) were incubated for 30 min in the dark at room temperature in 16 different concentrations obtained through sequential dilution, starting with the highest soluble concentration. The samples were transferred to glass capillaries (Monolith NT Capillaries, NanoTemper Technologies GmbH, München, Germany) and then analyzed using a Nano-Temperature Monolith NT 115 device (8% IR laser power). The signal quality was monitored using a NanoTemper Monolith device to detect possible autofluorescence of the ligand, aggregation, or changes in the photobleaching rate. The experiments were carried out in at least three replicates and processed using affinity analysis software (MO Control v.1.6.1, NanoTemper Technologies GmbH, München, Germany).

[4] = 4th day of PBMC incubation with N7, magnetic separation, K562, n = 5
[5] = 6th day of PBMC incubation with N7, magnetic separation, K562, n = 5

T1 sequence (Q9NP99 21-205 limits assumed): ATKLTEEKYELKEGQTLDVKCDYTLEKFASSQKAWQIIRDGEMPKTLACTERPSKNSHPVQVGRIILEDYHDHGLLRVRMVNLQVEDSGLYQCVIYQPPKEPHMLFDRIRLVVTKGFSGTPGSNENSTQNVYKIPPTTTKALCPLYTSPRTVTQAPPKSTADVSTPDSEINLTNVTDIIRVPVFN

actin
TREM-1 ligand (TREM-1 [1]; ref [30],[31],[32],[33]): TREM-1 ligands

Hsp70: recombinant human Hsp70, expressed in Escherichia coli M15
TREM-1 ligand (TREM-1 [1]; ref [19]): ligand of the TREM-1 innate immunity receptor | activation of cytotoxic lymphocytes (HLA-negative tumor cells): activates TREM-1-dependent and TREM-1-independent cytotoxic lymphocytes that kill HLA-negative tumor cells

PGLYRP1: innate immunity protein PGLYRP1, TREM-1 ligand
TREM-1 ligand (TREM-1 [1]; ref [30],[31],[32],[33]): TREM-1 ligands

AMTKDNNLLGR [N9, 11-membered peptide from fraction No. 9; can be considered as a shortened TKD peptide]
interaction with TREM-1 (TREM-1 [2]; concluded from LP17 blocking and binding experiments): does not interact with the TREM-1 receptor | interaction with CD94 receptor (CD94 receptor): interact with the CD94 receptor | lymphocyte populations activated (K562 cells; human PBMC ex vivo with peptide, K562 target cells): activates CD94+ NK cells

CN1C(=O)C(Cc2c[nH]c3ccccc23)NC1=S (centres unmarked) [inhibitor of RIP1 kinase, necrostatin1, reference compound]
effect of inhibitor on cytotoxic signal (K562 cells; CD8+ and CD4+ T lymphocytes activated by N7, 6 days, inhibitor pre-incubated 1 h (20 μg/mL), K562 3 or 24 h, n = 5): prevent the induction of cytotoxic signal

SDNQPGVL [N7.1, N-terminal fragment of N7 peptide]
effect on interaction of TREM-1 with its ligands (TREM-1 [2]): inhibits the interaction of TREM-1 with its ligands; also recorded: prevent interaction of the TREM-1 receptor with its ligands in vitro | effect on interaction of TREM-1 with its ligands (TREM-1 [2]; listed as SDNQPGVL): competes with other ligands | effect on lymphocyte activation by TREM-1 ligands (K562 cells; PBMC pre-incubated with shortened peptide, then N7 peptide, HMGB1 or Hsp70 for 6 days, K562 24 h): blocks the activation of lymphocytes by all the ligands studied | effect in development of sepsis (ICR mice; LPS-induced sepsis in mice): protective effects in the development of sepsis in mice | surviving animals (survival rate) (ICR mice; female ICR mice, n = 7, 0.6 mg S. enterica LPS i.p., observed to 120 h, saline 29%): 86%

LQVTDSGLYRCVIYHPP [LP17, reference compound]
TREM-1 signaling inhibition (TREM-1 [1]; ref [24]): TREM-1 signaling inhibitor

Ac-IEID-aldehyde [caspase 3 inhibitor, reference compound]
effect of inhibitor on activity of NK cells (K562 cells; NK cells activated by N7, inhibitor pre-incubated 1 h (20 μg/mL), K562, n = 5): blocked

SDNQPGVLIQVYEGEK [N7]
cytotoxic activity of CD4+ T lymphocytes (K562 cells; [4]): activated | cytotoxic activity of CD8+ T lymphocytes (K562 cells; [4]): No traces of cytotoxic activity | cytotoxic activity of NK cells (K562 cells; [4]): reached their maximum activity | cytotoxic activity of CD4+ T lymphocytes (K562 cells; [5]): remained | cytotoxic activity of CD8+ T lymphocytes (K562 cells; [5]): appeared | cytotoxic activity of NK cells (K562 cells; [5]): completely disappeared | induction of cytotoxic lymphocytes (K562 cells; PBMC 6 days with synthetic peptide (10^−9 M), MHC-negative K562 cells 24 h, n = 5): cytotoxic lymphocytes appear in the population, killing MHC-negative K562 tumor cells

CC(C)C[C@H](NC(=O)[C@H](CC(C)C)NC(=O)[C@H](CC(N)=O)NC(=O)[C@H](CC(N)=O)NC(=O)[C@H](CC(=O)O)NC(=O)[C@H](CCCCN)NC(=O)[C@@H](N)[C@@H](C)O)C(=O)NCC(=O)N[C@@H](CCCNC(=N)N)C(=O)N[C@@H](Cc1ccccc1)C(=O)N[C@@H](CCC(=O)O)C(=O)N[C@@H](CC(C)C)C(=O)N[C@@H](CO)C(=O)NCC(=O)O [TKD]
Kd (TREM-1 [3]): 3 µM

— publication PMC12525431, “Hsp70 Peptides Induce TREM-1-Dependent and TREM-1-Independent Activation of Cytotoxic Lymphocytes” (International Journal of Molecular Sciences, 2025)
